Experimental data from PubChem BioAssay AID1963960 (Molecular Pharmacology Branch, DTP, NCI, 2024).

Test system: MDA-MB-468 spheroids with HUVEC/MSC, viability
Assay: Anticancer human tumor MDA-MB-468 cell line growth inhibition [PI3K];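 further: spheroids exposed to agents for seven days before readout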;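 on viability, T/C: 100% = DMSO vehicle control viability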
Conditions: for viability, T/C: stronger effect = lower value
Procedure, shortened: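 Spheroid viability read-out. Co-cultures contained the tumor line plus HUVEC and human MSCs. Each agent was paired with a PI3K inhibitor (inavolisib, alpelisib, duvelisib, copanlisib) across half-log dilutions starting at clinical Cmax, or at 10 microM when Cmax was unknown.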

[1] = curve of first compound, second compound 0.00316 µM
[2] = curve of first compound, second compound 0.01 µM
[3] = curve of first compound, second compound 0.0316 µM
[4] = curve of first compound, second compound 0.1 µM
[5] = curve of first compound, second compound 0.316 µM
[6] = curve of first compound, second compound 1 µM
[7] = second compound 0.00316 µM, first compound 0.0316 µM
[8] = second compound 0.00316 µM, first compound 0.1 µM
[9] = second compound 0.00316 µM, first compound 0.316 µM
[10] = second compound 0.00316 µM, first compound 1 µM
[11] = second compound 0.00316 µM, first compound 3.16 µM
[12] = second compound 0.00316 µM, first compound 10 µM
[13] = second compound 0.01 µM, first compound 0.0316 µM
[14] = second compound 0.01 µM, first compound 0.1 µM
[15] = second compound 0.01 µM, first compound 0.316 µM
[16] = second compound 0.01 µM, first compound 1 µM
[17] = second compound 0.01 µM, first compound 3.16 µM
[18] = second compound 0.01 µM, first compound 10 µM
[19] = second compound 0.0316 µM, first compound 0.0316 µM
[20] = second compound 0.0316 µM, first compound 0.1 µM
[21] = second compound 0.0316 µM, first compound 0.316 µM
[22] = second compound 0.0316 µM, first compound 1 µM
[23] = second compound 0.0316 µM, first compound 3.16 µM
[24] = second compound 0.0316 µM, first compound 10 µM
[25] = second compound 0.1 µM, first compound 0.0316 µM
[26] = second compound 0.1 µM, first compound 0.1 µM
[27] = second compound 0.1 µM, first compound 0.316 µM
[28] = second compound 0.1 µM, first compound 1 µM
[29] = second compound 0.1 µM, first compound 3.16 µM
[30] = second compound 0.1 µM, first compound 10 µM
[31] = second compound 0.316 µM, first compound 0.0316 µM
[32] = second compound 0.316 µM, first compound 0.1 µM
[33] = second compound 0.316 µM, first compound 0.316 µM
[34] = second compound 0.316 µM, first compound 1 µM
[35] = second compound 0.316 µM, first compound 3.16 µM
[36] = second compound 0.316 µM, first compound 10 µM
[37] = second compound 1 µM, first compound 0.0316 µM
[38] = second compound 1 µM, first compound 0.1 µM
[39] = second compound 1 µM, first compound 0.316 µM
[40] = second compound 1 µM, first compound 1 µM
[41] = second compound 1 µM, first compound 3.16 µM
[42] = second compound 1 µM, first compound 10 µM

**Q.** `COc1c(OCCCN2CCOCC2)ccc2c3n(c(=NC(=O)c4cnc(N)nc4)nc12)CCN3` was tested. Which viability, T/C (compound 0.00316 µM) did it give?
**A.** The viability, T/C was 99.8% [middle of 8 runs].

**Q.** And the viability, T/C (compound 0.01 µM)?
**A.** The viability, T/C was 90.4% [middle of 8 runs].

**Q.** And the viability, T/C (compound 0.0316 µM)?
**A.** Its viability, T/C is 76.7% [middle of 8 runs].

**Q.** What about the viability, T/C (compound 0.1 µM) of the same molecule?
**A.** The viability, T/C was 57.7% [middle of 8 runs].

**Q.** And the viability, T/C (compound 0.316 µM)?
**A.** The viability, T/C was 23.9% [middle of 8 runs].

**Q.** What about the viability, T/C (compound 1 µM) of the same molecule?
**A.** The viability, T/C was 3.27% [middle of 8 runs].

**Q.** What about the IC50 (compound alone, run of 05/09/2023) of the same molecule?
**A.** The IC50 was 122 nM [middle of 7 runs].

**Q.** Which IC50 [1] does the source give for `CC1(C)CCC(CN2CCN(c3ccc(C(=O)NS(=O)(=O)c4ccc(NCC5CCOCC5)c([N+](=O)[O-])c4)c(Oc4cnc5[nH]ccc5c4)c3)CC2)=C(c2ccc(Cl)cc2)C1` + CC(Nc1ccc2c(c1)OCCn1cc(N3C(=O)OCC3C(F)F)nc1-2)C(N)=O here?
**A.** Its IC50 is 4.86 µM.

**Q.** What about the IC50 [2] of the same molecule?
**A.** The IC50 was 5.03 µM.

**Q.** And the IC50 [3]?
**A.** Its IC50 is 4.3 µM.

**Q.** And the IC50 [4]?
**A.** The IC50 was 4.32 µM.

**Q.** And the IC50 [5]?
**A.** The IC50 was 3.63 µM.

**Q.** And the IC50 [6]?
**A.** Its IC50 is 3.48 µM.

**Q.** And the viability, T/C [7]?
**A.** The viability, T/C was 94.2%.

**Q.** What about the viability, T/C [8] of the same molecule?
**A.** The viability, T/C was 99.9%.

**Q.** And the viability, T/C [9]?
**A.** The viability, T/C was 82.1%.

**Q.** What about the viability, T/C [10] of the same molecule?
**A.** The viability, T/C was 91.6%.

**Q.** What about the viability, T/C [11] of the same molecule?
**A.** The viability, T/C was 74.4%.

**Q.** And the viability, T/C [12]?
**A.** Its viability, T/C is 8.95%.

**Q.** What about the viability, T/C [13] of the same molecule?
**A.** The viability, T/C was 91.8%.

**Q.** What about the viability, T/C [14] of the same molecule?
**A.** Its viability, T/C is 108%.

**Q.** And the viability, T/C [15]?
**A.** The viability, T/C was 90.1%.

**Q.** What about the viability, T/C [16] of the same molecule?
**A.** The viability, T/C was 108%.

**Q.** What about the viability, T/C [17] of the same molecule?
**A.** Its viability, T/C is 77.5%.

**Q.** What about the viability, T/C [18] of the same molecule?
**A.** The viability, T/C was 9.38%.

**Q.** What about the viability, T/C [19] of the same molecule?
**A.** The viability, T/C was 97.6%.

**Q.** What about the viability, T/C [20] of the same molecule?
**A.** Its viability, T/C is 89.3%.

**Q.** What about the viability, T/C [21] of the same molecule?
**A.** Its viability, T/C is 71.6%.

**Q.** And the viability, T/C [22]?
**A.** Its viability, T/C is 94.6%.

**Q.** And the viability, T/C [23]?
**A.** The viability, T/C was 64.6%.

**Q.** And the viability, T/C [24]?
**A.** The viability, T/C was 9.45%.

**Q.** What about the viability, T/C [25] of the same molecule?
**A.** Its viability, T/C is 97.9%.

**Q.** What about the viability, T/C [26] of the same molecule?
**A.** The viability, T/C was 95.7%.

**Q.** What about the viability, T/C [27] of the same molecule?
**A.** Its viability, T/C is 83.4%.

**Q.** What about the viability, T/C [28] of the same molecule?
**A.** The viability, T/C was 83.8%.

**Q.** And the viability, T/C [29]?
**A.** The viability, T/C was 67.2%.

**Q.** What about the viability, T/C [30] of the same molecule?
**A.** The viability, T/C was 10%.

**Q.** What about the viability, T/C [31] of the same molecule?
**A.** Its viability, T/C is 89.6%.

**Q.** What about the viability, T/C [32] of the same molecule?
**A.** The viability, T/C was 74.7%.

**Q.** What about the viability, T/C [33] of the same molecule?
**A.** The viability, T/C was 96%.

**Q.** And the viability, T/C [34]?
**A.** Its viability, T/C is 76.5%.

**Q.** And the viability, T/C [35]?
**A.** The viability, T/C was 56.2%.

**Q.** What about the viability, T/C [36] of the same molecule?
**A.** Its viability, T/C is 8.04%.

**Q.** What about the viability, T/C [37] of the same molecule?
**A.** Its viability, T/C is 80.6%.

**Q.** What about the viability, T/C [38] of the same molecule?
**A.** Its viability, T/C is 79.8%.

**Q.** And the viability, T/C [39]?
**A.** The viability, T/C was 79.6%.

**Q.** What about the viability, T/C [40] of the same molecule?
**A.** The viability, T/C was 90%.

**Q.** What about the viability, T/C [41] of the same molecule?
**A.** Its viability, T/C is 53.8%.

**Q.** And the viability, T/C [42]?
**A.** Its viability, T/C is 9.1%.

**Q.** For `CC1(C)CCC(Nc2ncc(C(F)(F)F)c(-c3c[nH]c4c(P(C)(C)=O)c(C#N)ccc34)n2)CN1` (stereo unspecified) + COc1c(OCCCN2CCOCC2)ccc2c3n(c(=NC(=O)c4cnc(N)nc4)nc12)CCN3, which IC50 [1] is on record?
**A.** The IC50 was under 0.0316 µM.

**Q.** What about the IC50 [2] of the same molecule?
**A.** The IC50 was under 0.0316 µM.

**Q.** What about the IC50 [3] of the same molecule?
**A.** The IC50 was under 0.0316 µM.

**Q.** And the IC50 [4]?
**A.** The IC50 was under 0.0316 µM.

**Q.** What about the IC50 [5] of the same molecule?
**A.** Its IC50 is under 0.0316 µM.

**Q.** And the IC50 [6]?
**A.** The IC50 was under 0.0316 µM.

**Q.** What about the viability, T/C [7] of the same molecule?
**A.** The viability, T/C was 9.69%.

**Q.** What about the viability, T/C [8] of the same molecule?
**A.** Its viability, T/C is 8.09%.

**Q.** And the viability, T/C [9]?
**A.** Its viability, T/C is 7.16%.

**Q.** What about the viability, T/C [10] of the same molecule?
**A.** The viability, T/C was 7.44%.

**Q.** And the viability, T/C [11]?
**A.** The viability, T/C was 6.56%.

**Q.** And the viability, T/C [12]?
**A.** Its viability, T/C is 1.22%.

**Q.** And the viability, T/C [13]?
**A.** The viability, T/C was 8.56%.

**Q.** What about the viability, T/C [14] of the same molecule?
**A.** Its viability, T/C is 7.53%.

**Q.** What about the viability, T/C [15] of the same molecule?
**A.** Its viability, T/C is 6.69%.

**Q.** And the viability, T/C [16]?
**A.** The viability, T/C was 6.66%.

**Q.** What about the viability, T/C [17] of the same molecule?
**A.** Its viability, T/C is 6.59%.

**Q.** What about the viability, T/C [18] of the same molecule?
**A.** Its viability, T/C is 1.41%.

**Q.** And the viability, T/C [19]?
**A.** The viability, T/C was 8.31%.

**Q.** What about the viability, T/C [20] of the same molecule?
**A.** Its viability, T/C is 8.47%.

**Q.** And the viability, T/C [21]?
**A.** Its viability, T/C is 7.44%.

**Q.** What about the viability, T/C [22] of the same molecule?
**A.** Its viability, T/C is 6.08%.

**Q.** And the viability, T/C [23]?
**A.** Its viability, T/C is 6.49%.

**Q.** What about the viability, T/C [24] of the same molecule?
**A.** Its viability, T/C is 1.91%.

**Q.** What about the viability, T/C [25] of the same molecule?
**A.** Its viability, T/C is 9.69%.

**Q.** And the viability, T/C [26]?
**A.** Its viability, T/C is 8.3%.

**Q.** And the viability, T/C [27]?
**A.** The viability, T/C was 7.97%.

**Q.** What about the viability, T/C [28] of the same molecule?
**A.** The viability, T/C was 6.87%.

**Q.** What about the viability, T/C [29] of the same molecule?
**A.** Its viability, T/C is 6%.

**Q.** What about the viability, T/C [30] of the same molecule?
**A.** The viability, T/C was 2.2%.

**Q.** And the viability, T/C [31]?
**A.** The viability, T/C was 8.16%.

**Q.** And the viability, T/C [32]?
**A.** Its viability, T/C is 6.87%.

**Q.** What about the viability, T/C [33] of the same molecule?
**A.** The viability, T/C was 6.83%.

**Q.** What about the viability, T/C [34] of the same molecule?
**A.** The viability, T/C was 5.84%.

**Q.** What about the viability, T/C [35] of the same molecule?
**A.** Its viability, T/C is 4.35%.

**Q.** And the viability, T/C [36]?
**A.** The viability, T/C was 1.03%.

**Q.** What about the viability, T/C [37] of the same molecule?
**A.** Its viability, T/C is 4.03%.

**Q.** And the viability, T/C [38]?
**A.** Its viability, T/C is 3.59%.

**Q.** What about the viability, T/C [39] of the same molecule?
**A.** Its viability, T/C is 3.45%.

**Q.** And the viability, T/C [40]?
**A.** Its viability, T/C is 4.91%.

**Q.** What about the viability, T/C [41] of the same molecule?
**A.** Its viability, T/C is 3.08%.

**Q.** And the viability, T/C [42]?
**A.** Its viability, T/C is 0.82%.
